This is an account of results in PMC8906351 (Pharmaceutical research, 2021).

Structures can show the parent of a compound that is named as a salt.

The test system of data set [1] is MCT8. To be noted: concentration of 1 mM; cited from earlier work.
Data set [2] concerns [^14C]phenytoin efflux across the rat BBB. Nature of the data set: BEI inhibition study: pre-administration of compounds into rat Par2 region. In kind it is in vivo. To be noted: for effect of pre-administration on [14C]phenytoin BEI (in words): 20 mM desipramine, probenecid, MK-571, 5 mM quinidine, 4 mM verapamil, 500 μM prazosin, 10 mM methotrexate, DHEAS, PSC833.
The conditions of data set [3]: rat, 0.01 uCi.
The conditions of data set [4]: adult rats; brain uptake index; cited from earlier work.
Data set [5] in a line: in vivo. To be noted: rat, not told.
In data set [6] the test system is P-glycoprotein (P-gp). Nature of the data set: In situ brain perfusion in wild-type and mdr1a/1b knockout mice. The class given is in vivo, mouse. The following applies: [14C]phenytoin 2.73 μM; perfusion 2.5 mL/min for 2 min.
Data set [7] is described as follows: Brain efflux index. In kind it is in vivo, mouse.
The nature of data set [8]: Brain efflux index. To be noted: rat.

For the compound `O=C1OC(c2ccc(O)c(S(=O)(=O)O)c2)(c2ccc(O)c(S(=O)(=O)O)c2)c2c(Br)c(Br)c(Br)c(Br)c21` [BSP, Bromosulfophthalein], the “inhibition of MCT8-mediated transport of the other substrates” value in data set [1] is “more than 50%”. Moreover, in data set [2] (rat, 30 min, pre-administration of 20 mM), the “decrease of [14C]phenytoin BEI” value is 82%.

For `CNCCCN1c2ccccc2CCc2ccccc21` [Desipramine, desipramine hydrochloride], the “inhibition of MCT8-mediated transport of the other substrates” value in data set [1] is given as “more than 50%”. In addition, the “BEI (%)” value in data set [2] (0.5 h, 20000 µM) came to 28.4 ± 20.7%. Further, the “effect of pre-administration on [14C]phenytoin BEI (in words)” value (from here on “effect of pre-administration”) in data set [2] (rat, 30 min) is reported as “significantly decreased”.

As for `CN(C)C(=O)CCSC(SCCC(=O)O)c1cccc(/C=C/c2ccc3ccc(Cl)cc3n2)c1` (centres unmarked) [MK-571], in data set [2] (rat, 30 min), the “effect of pre-administration” value is “not significantly altered”.

In the case of `CN(Cc1cnc2nc(N)nc(N)c2n1)c1ccc(C(=O)N[C@@H](CCC(=O)O)C(=O)O)cc1` [Methotrexate, methotrexate], in data set [2] (0.5 h, 10000 µM), the “BEI (%)” value amounted to 67.3 ± 16.7%. In data set [2] (rat, 30 min), the “effect of pre-administration” value was “not significantly altered”.

As for `C/C=C/C[C@@H](C)C(=O)[C@H]1C(=O)N[C@@H](C(C)C)C(=O)N(C)CC(=O)N(C)[C@@H](CC(C)C)C(=O)N[C@@H](C(C)C)C(=O)N(C)[C@@H](CC(C)C)C(=O)N[C@@H](C)C(=O)N[C@H](C)C(=O)N(C)[C@@H](CC(C)C)C(=O)N(C)[C@@H](CC(C)C)C(=O)N(C)[C@@H](C(C)C)C(=O)N1C` [PSC833], the “effect of pre-administration” value in data set [2] (rat, 30 min) is “did not alter”.

On to `COc1cc2nc(N3CCN(C(=O)c4ccco4)CC3)nc(N)c2cc1OC` [Prazosin, prazosin], for which the “effect of pre-administration” value in data set [2] (rat, 30 min) was “not significantly altered”. For the same compound, the “BEI (%)” value in data set [2] (rat, 30 min, compound 0.5 mM pre-administered, control 64.1 ± 12.9) is 59.4 ± 8.5%.

Take `CCCN(CCC)S(=O)(=O)c1ccc(C(=O)O)cc1` [Probenecid, probenecid]: the “BEI (%)” value in data set [2] (0.5 h, 20000 µM) amounted to 56.5 ± 24.9%. Moreover, the “effect of pre-administration” value in data set [2] (rat, 30 min) is “not significantly altered”.

On to `C=C[C@H]1C[N@@]2CC[C@H]1C[C@@H]2[C@@H](O)c1ccnc2ccc(OC)cc12` [Quinidine, quinidine], for which the “BEI (%)” value in data set [2] (0.5 h, 5000 µM) was 50.5 ± 13.1%. In addition, the “effect of pre-administration” value in data set [2] (rat, 30 min) is “not significantly altered”.

For the compound `O=C1NC(=O)C(c2ccccc2)(c2ccccc2)N1` [phenytoin, 5,5-diphenylhydantoin], the “elimination rate constant kel, bbb” value in data set [3] (in vivo) turned out to be 0.0413 ± 46 min⁻¹. Moreover, the “half-life t1/2 of brain efflux” value in data set [3] (not told) turned out to be 16.8 ± 1.9 min. In data set [4], the blood-to-brain influx clearance was 64 μL/(min·g brain). For the same compound, the half-life in data set [5] was 17 min; in data set [7] (mouse, brain (ipsilateral hemisphere), 0.019 μCi/0.3 μL (= 1.15 mM)), 31 min. For the same compound, in data set [6], the “Kin value, wild-type vs mdr1a/1b knockout mice” value was “not significantly different”. Moreover, in data set [7] (mice, [14C]phenytoin 1.15 mM, 0.3 μL injected into S2 region), the “brain elimination rate constant kel, BBB” value turned out to be 0.0223 ± 0.0075 min⁻¹. For the same compound, the “half-life t1/2 in the brain” value in data set [7] (mice, [14C]phenytoin injected into S2 region) was 31.1 ± 10.8 min. Further, in data set [8] (177 vs 64 μL/(min·g brain) of Cornford et al.), the “elimination clearance relative to influx clearance” value was 2.8 fold. Also, in data set [8] (from kel, bbb and Vd, brain), the “elimination clearance across the BBB” value was 177 ±20 μL/(mim•g brain). Further, the “100 − BEI value of [14C]phenytoin compared to control” value in data set [2] (rat, 30 min, pre-administration of 1 mM unlabeled phenytoin) was “significantly increased”.
